This test has as its system Pseudomonas aeruginosa PAM1001. The test can be described thus: checkerboard assay (broth microdilution): levofloxacin MIC in presence of efflux pump inhibitor. The class given is cell-based. As to the method: For compounds labeled with the prefix ‘M’, potentiation effect is observed by the reduction of the minimum inhibitory concentration of levofloxacin in the presence of the experimental efflux pump inhibitor. The activity of efflux pump inhibitors (EPI) in combination with fluoroquinolones, such as levofloxacin, is assessed by the checkerboard assay (Antimicrobial Combinations. In Antibiotics in Laboratory Medicine, Ed. Victor Lorian, M.D., Fourth edition, 1996, pp 333-338) using broth microdilution method performed as recommended by the National Committee for Clinical Laboratory Standards (1997). Methods for Dilution of Antimicrobial Susceptibility Tests for Bacteria That Grow Aerobically—Fourth Edition; Approved Standard. NCCLS Document M7-A4, Vol 17 No.2). The test organism used is Pseudomonas aeruginosa PAM1001. […] The compounds tabulated below are representative of the described invention.
In these assays, multiple dilutions of two drugs, namely the EPI and levofloxacin, are being tested, alone and in combination, at concentrations equal to, above and below their respective minimal inhibitory concentrations (MICs). In the case of EPI, most of these compounds are devoid of intrinsic antimicrobial activity and are tested up to the maximum concentration of 40 μg/mL. The MIC of levofloxacin against P. aeruginosa PAM1001 is 4 μg/mL.
The EPI tested are readily soluble in water and stock solutions are prepared at a final concentration of 2 mg/mL. Stock solutions are further diluted, according to the needs of a particular assay, in Mueller Hinton Broth (MHB). Stock solution can be stored at −80° C. Quinolones are solubilized according to the instructions of the manufacturers, at a concentration of 1 mg/mL. They are then further diluted in MHB. Stock solution can be stored at −80° C.
The checkerboard assay is performed in microtiter plates. Levofloxacin is diluted in the x axis, each column containing a single concentration of levofloxacin. The EPI is diluted in the y axis, each row containing an equal concentration of EPI. The result of these manipulations is that each well of the microtiter plate contains a unique combination of concentrations of the two agents. Each EPI are tested independently.
The assay is performed in MHB with a final bacterial inoculum of 5×10^5 CFU/mL (from an early-log phase culture). Microtiter plates are incubated during 20 h at 35° C. and are read using a microtiter plate reader (Molecular Devices) at 650 nm as well as visual observation using a microtiterplate reading mirror.
(In broth dilution the organism is exposed to a series of concentrations in liquid medium.)

The structures appear in SMILES notation.

Regarding `NCC(=O)N[C@H]1CN[C@@H](C(=O)N[C@H](Cc2ccc(F)cc2)C(=O)Nc2cnc3ccccc3c2)C1` [Compound M20, (2R,4R)-4-(2-Aminoacetamideo)-N-[(1R)-2-(4-fluorophenyl)-1-(3-quinolylcarbamoyl)ethyl]-2-pyrrolidinecarboxamide], the “Levofloxacin MIC Against P. aerugiuosa PAM1001 in Presence of Efflux Pump Inhibitor (EPI), Minimum Inhibitory Concentration” value by setting is: (EPI Conc. 0 μg/mL) 4 µg/mL; (EPI Conc. 0.625 μg/mL) 4 µg/mL; (EPI Conc. 1.25 μg/mL) 4 µg/mL; (EPI Conc. 2.5 μg/mL) 4 µg/mL; (EPI Conc. 5 μg/ mL) 2 µg/mL; (EPI Conc. 10 μg/mL) 0.50 µg/mL. The “Levofloxacin MIC Against P. aerugiuosa PAM1001 in Presence of Efflux Pump Inhibitor (EPI), Minimum Inhibitory Concentration” value stood at 0.125 µg/mL (EPI Conc. 20 μg/mL) and 0.015 µg/mL (EPI Conc. 40 μg/mL).
On to `NCC(=O)N[C@H]1CN[C@H](C(=O)N[C@H](Cc2ccc(F)cc2)C(=O)Nc2cnc3ccccc3c2)C1` [Compound M21, (2S,4R)-4-(2-Aminoacetamido)-N-[(1R)-2-(4-fluorophenyl)-1-(3-quinolylcarbamoyl)ethyl]-2-pyrrolidnecarboxamide], for which the “Levofloxacin MIC Against P. aerugiuosa PAM1001 in Presence of Efflux Pump Inhibitor (EPI), Minimum Inhibitory Concentration” value was found to be 4 µg/mL (EPI Conc. 0 μg/mL); 4 µg/mL (EPI Conc. 0.625 μg/mL); 4 µg/mL (EPI Conc. 1.25 μg/mL); 2 µg/mL (EPI Conc. 2.5 μg/mL); 2 µg/mL (EPI Conc. 5 μg/ mL); 0.25 µg/mL (EPI Conc. 10 μg/mL). Also, the “Levofloxacin MIC Against P. aerugiuosa PAM1001 in Presence of Efflux Pump Inhibitor (EPI), Minimum Inhibitory Concentration” value reads like this: (EPI Conc. 20 μg/mL) 0.06 µg/mL; (EPI Conc. 40 μg/mL) 0.015 µg/mL.
`COc1cc(C)c2ncc(NC(=O)[C@@H](CCc3ccccc3)NC(=O)[C@@H]3C[C@@H](NC(=O)CN)CN3)cc2c1` [Compound M22]: the “Levofloxacin MIC Against P. aerugiuosa PAM1001 in Presence of Efflux Pump Inhibitor (EPI), Minimum Inhibitory Concentration” value by setting is: (EPI Conc. 0 μg/mL) 4 µg/mL; (EPI Conc. 0.625 μg/mL) 4 µg/mL; (EPI Conc. 1.25 μg/mL) 4 µg/mL; (EPI Conc. 2.5 μg/mL) 4 µg/mL; (EPI Conc. 5 μg/ mL) 4 µg/mL; (EPI Conc. 10 μg/mL) 0.50 µg/mL. Besides, the “Levofloxacin MIC Against P. aerugiuosa PAM1001 in Presence of Efflux Pump Inhibitor (EPI), Minimum Inhibitory Concentration” value reads like this: (EPI Conc. 20 μg/mL) 0.03 µg/mL; (EPI Conc. 40 μg/mL) 0.015 µg/mL.
`CCc1ccc2ncc(NC(=O)[C@@H](Cc3ccc(O)cc3)NC(=O)[C@H]3C[C@H](CN)CN3)cc2c1` [Compound M25, (2R,4R)-4-(Amiomethyl)-N-[(1R)-2-(4-hydroxyphenyl)-1-(6-ethyl-3-quinolylcarbamoyl)ethyl]-2-pyrrolidinecarboxamide]: the “Levofloxacin MIC Against P. aerugiuosa PAM1001 in Presence of Efflux Pump Inhibitor (EPI), Minimum Inhibitory Concentration” value runs as follows: (EPI Conc. 0 μg/mL) 4 µg/mL; (EPI Conc. 0.625 μg/mL) 4 µg/mL; (EPI Conc. 1.25 μg/mL) 4 µg/mL; (EPI Conc. 2.5 μg/mL) 4 µg/mL; (EPI Conc. 5 μg/ mL) 4 µg/mL; (EPI Conc. 10 μg/mL) 0.5 µg/mL. Further, the “Levofloxacin MIC Against P. aerugiuosa PAM1001 in Presence of Efflux Pump Inhibitor (EPI), Minimum Inhibitory Concentration” value (EPI Conc. 20 μg/mL) worked out at 0.015 µg/mL.
